Assay results published in PubChem BioAssay AID248 (DTP/NCI, 2004).
“And” between values parts separate entries of the source, which are not always exact repeats. Identical values can stand only once. Inconclusive results and toxic doses are left out.

System: L1210 leukemia ip in BDF1 mice, survival T/C
Assay: NCI In Vivo Anticancer Drug Screen. Data for tumor model L1210 Leukemia (intraperitoneal) in B6D2F1 (BDF1) mice
Settings: endpoint: mean survival time, higher = longer survival
Summary of the method: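 Tumor was transplanted into mice, which were then dosed with test compound or vehicle alone. Survival was recorded for each group, and the treated figure was expressed relative to the control figure.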

[1] = dose: 50.0 mg/kg/injection, schedule: Q01DX001 (ip), vehicle: carboxymethylcellulose (CMC)
[2] = dose: 100.0 mg/kg/injection, schedule: Q01DX001 (ip), vehicle: carboxymethylcellulose (CMC)
[3] = dose: 200.0 mg/kg/injection, schedule: Q01DX001 (ip), vehicle: carboxymethylcellulose (CMC)
[4] = dose: 100.0 mg/kg/injection, schedule: Q01DX009 (ip), vehicle: saline with Tween-80
[5] = dose: 200.0 mg/kg/injection, schedule: Q01DX009 (ip), vehicle: saline with Tween-80
[6] = dose: 100.0 mg/kg/injection, schedule: Q01DX001 (ip), vehicle: saline
[7] = dose: 200.0 mg/kg/injection, schedule: Q01DX001 (ip), vehicle: saline
[8] = dose: 100.0 mg/kg/injection, schedule: Q01DX009 (ip), vehicle: Klucel (hydroxypropylcellulose) (HPC)
[9] = dose: 100.0 mg/kg/injection, schedule: Q04DX003 (ip), vehicle: Klucel (hydroxypropylcellulose) (HPC)
[10] = dose: 200.0 mg/kg/injection, schedule: Q01DX009 (ip), vehicle: Klucel (hydroxypropylcellulose) (HPC)
[11] = dose: 200.0 mg/kg/injection, schedule: Q04DX003 (ip), vehicle: Klucel (hydroxypropylcellulose) (HPC)
[12] = dose: 400.0 mg/kg/injection, schedule: Q01DX009 (ip), vehicle: Klucel (hydroxypropylcellulose) (HPC)
[13] = dose: 400.0 mg/kg/injection, schedule: Q04DX003 (ip), vehicle: Klucel (hydroxypropylcellulose) (HPC)
[14] = dose: 100.0 mg/kg/injection, schedule: Q04DX003 (ip), vehicle: saline with Tween-80
[15] = dose: 50.0 mg/kg/injection, schedule: Q01DX001 (ip), vehicle: saline
[16] = dose: 50.0 mg/kg/injection, schedule: Q01DX009 (ip), vehicle: saline
[17] = dose: 100.0 mg/kg/injection, schedule: Q01DX001 (ip), vehicle: saline with Tween-80
[18] = dose: 200.0 mg/kg/injection, schedule: Q01DX001 (ip), vehicle: saline with Tween-80
[19] = dose: 400.0 mg/kg/injection, schedule: Q01DX001 (ip), vehicle: saline with Tween-80
[20] = dose: 12.5 mg/kg/injection, schedule: Q01DX009 (ip), vehicle: saline
[21] = dose: 25.0 mg/kg/injection, schedule: Q01DX009 (ip), vehicle: saline
[22] = dose: 100.0 mg/kg/injection, schedule: Q01DX001 (ip), vehicle: Klucel (hydroxypropylcellulose) (HPC)
[23] = dose: 200.0 mg/kg/injection, schedule: Q01DX001 (ip), vehicle: Klucel (hydroxypropylcellulose) (HPC)
[24] = dose: 50.0 mg/kg/injection, schedule: Q04DX002 (ip), vehicle: Klucel (hydroxypropylcellulose) (HPC)
[25] = dose: 100.0 mg/kg/injection, schedule: Q04DX002 (ip), vehicle: Klucel (hydroxypropylcellulose) (HPC)
[26] = dose: 200.0 mg/kg/injection, schedule: Q04DX002 (ip), vehicle: Klucel (hydroxypropylcellulose) (HPC)

COc1ccc(Nc2cc(=S)nc(N)[nH]2)cc1
T/C (dose: 100.0 mg/kg/injection, schedule: Q01DX Z (ip), vehicle: methylcellulose (MC)): 100 % of control
T/C (dose: 200.0 mg/kg/injection, schedule: Q01DX Z (ip), vehicle: methylcellulose (MC)): 115 % of control

Cc1ccccc1C1=CCCCC1
T/C [1]: 87 % of control
T/C [2]: 104 % of control
T/C [3]: 96 % of control
T/C (dose: 400.0 mg/kg/injection, schedule: Q01DX001 (ip), vehicle: carboxymethylcellulose (CMC)): 97 % of control

CCCCNC(C)(C)C(=O)c1ccco1
T/C (dose: 50.0 mg/kg/injection, schedule: Q01DX009 (ip), vehicle: saline with Tween-80): 100 % of control
T/C [4]: 97 % of control
T/C [5]: 111 % of control

ClC1=C(Cl)C2(Cl)CC(Cl)C1C2(Cl)Cl (stereo not drawn)
T/C (dose: 10.0 mg/kg/injection, schedule: Q01DX001 (ip), vehicle: acetone): 105 % of control
T/C (dose: 20.0 mg/kg/injection, schedule: Q01DX001 (ip), vehicle: acetone): 105 % of control

CC(CC(=O)N1CCCCC1)CC(=O)N1CCCCC1
T/C [6]: 94 % of control
T/C [7]: 104 % of control

Cc1ccc(C)c(CCl)c1
T/C (dose: 75.0 mg/kg/injection, schedule: Q01DX001 (ip), vehicle: saline): 101 % of control
T/C (dose: 150.0 mg/kg/injection, schedule: Q01DX001 (ip), vehicle: saline): 95 % of control

CC(C)(COC(=O)c1ccccc1)COC(=O)c1ccccc1
T/C [8]: 116 % of control
T/C [9]: 96 % of control
T/C [10]: 93 % of control
T/C [11]: 107 % of control
T/C [12]: 93 % of control
T/C [13]: 98 % of control

CC(C)N(C(=O)C1C2C=CC(C2)C1C(=O)N(C(C)C)C(C)C)C(C)C (stereo not drawn)
T/C (dose: 25.0 mg/kg/injection, schedule: Q04DX003 (ip), vehicle: saline with Tween-80): 98 % of control
T/C (dose: 50.0 mg/kg/injection, schedule: Q04DX003 (ip), vehicle: saline with Tween-80): 98 % of control
T/C [14]: 106 % of control and 107 % of control

C/C=C1\CN2CCc3c([nH]c4ccccc34)C2CC1CC(=O)N(C)C (stereo not drawn)
T/C [14]: 96 % of control
T/C (dose: 200.0 mg/kg/injection, schedule: Q04DX003 (ip), vehicle: saline with Tween-80): 88 % of control

ClC(Cl)(Cl)CC(Br)C(Br)CBr (stereo not drawn)
T/C (dose: 100.0 mg/kg/injection, schedule: Q01DX001 (ip), vehicle: acetone): 96 % of control
T/C (dose: 100.0 mg/kg/injection, schedule: Q01DX009 (ip), vehicle: acetone): 95 % of control
T/C (dose: 100.0 mg/kg/injection, schedule: Q04DX003 (ip), vehicle: acetone): 97 % of control
T/C (dose: 200.0 mg/kg/injection, schedule: Q01DX001 (ip), vehicle: acetone): 98 % of control
T/C (dose: 200.0 mg/kg/injection, schedule: Q04DX003 (ip), vehicle: acetone): 92 % of control
T/C (dose: 400.0 mg/kg/injection, schedule: Q01DX001 (ip), vehicle: acetone): 98 % of control
T/C (dose: 400.0 mg/kg/injection, schedule: Q04DX003 (ip), vehicle: acetone): 91 % of control

COS(=O)(=O)CCC[n+]1ccccc1
T/C [15]: 98 % of control
T/C [6]: 96 % of control
T/C [7]: 96 % of control

CCCCN(C(=O)O)P(=O)(OCC)OCC
T/C [16]: 101 % of control
T/C (dose: 100.0 mg/kg/injection, schedule: Q01DX009 (ip), vehicle: saline): 103 % of control
T/C (dose: 200.0 mg/kg/injection, schedule: Q01DX009 (ip), vehicle: saline): 109 % of control
T/C (dose: 400.0 mg/kg/injection, schedule: Q01DX009 (ip), vehicle: saline): 97 % of control

CCO/C=C/C(=O)NC(=S)Nc1ccccc1
T/C [17]: 97 % of control
T/C [4]: 86 % of control
T/C [18]: 100 % of control
T/C [5]: 86 % of control
T/C [19]: 102 % of control

C=C(C)CC/C=C/C
T/C [15]: 115 % of control
T/C [6]: 115 % of control
T/C [7]: 110 % of control

CCCCOP(=O)(/C=C\c1ccco1)OCCCC
T/C (dose: 25.0 mg/kg/injection, schedule: Q01DX009 (ip), vehicle: Klucel (hydroxypropylcellulose) (HPC)): 91 % of control
T/C (dose: 50.0 mg/kg/injection, schedule: Q01DX009 (ip), vehicle: Klucel (hydroxypropylcellulose) (HPC)): 97 % of control
T/C [8]: 92 % of control
T/C (dose: 100.0 mg/kg/injection, schedule: Q01DX009 (ip), vehicle: carboxymethylcellulose (CMC)): 95 % of control

CCOC(=O)C(Cc1c[nH]c2ccccc12)(NC(C)=O)C(=O)OCC
T/C [4]: 88 % of control
T/C [5]: 90 % of control
T/C (dose: 400.0 mg/kg/injection, schedule: Q01DX009 (ip), vehicle: saline with Tween-80): 94 % of control

CC(=O)OC(CC(=O)CC(O)(C(F)(F)F)C(F)(F)F)(C(F)(F)F)C(F)(F)F
T/C (dose: 6.25 mg/kg/injection, schedule: Q01DX009 (ip), vehicle: saline): 94 % of control
T/C [20]: 91 % of control
T/C [21]: 88 % of control

C1CCC(C2CCCC(C3CCCC[N-]3)[N-]2)[N-]C1.[Cl][Pt] (stereo not drawn)
T/C [20]: 102 % of control
T/C [21]: 98 % of control
T/C [16]: 104 % of control and 106 % of control

O=P1(c2ccccc2)CCc2[nH]c3ccc(Br)cc3c2C1 (stereo not drawn)
T/C [22]: 97 % of control
T/C [23]: 93 % of control
T/C (dose: 400.0 mg/kg/injection, schedule: Q01DX001 (ip), vehicle: Klucel (hydroxypropylcellulose) (HPC)): 98 % of control

O=C(O)C1C2OC3C(OC(=O)C31)C2Br (stereo not drawn)
T/C [24]: 107 % of control
T/C [8]: 89 % of control
T/C [25]: 104 % of control
T/C [9]: 101 % of control
T/C [10]: 91 % of control
T/C [26]: 100 % of control
T/C [11]: 92 % of control
T/C [12]: 88 % of control
T/C (dose: 400.0 mg/kg/injection, schedule: Q04DX002 (ip), vehicle: Klucel (hydroxypropylcellulose) (HPC)): 96 % of control
T/C [13]: 93 % of control

OCC1OC(n2c(Cl)nc3cc(Cl)c(Cl)cc32)C(O)C1O (stereo not drawn)
T/C (dose: 100.0 mg/kg/injection, schedule: Q01DX005 (ip), vehicle: saline): 96 % of control
T/C (dose: 200.0 mg/kg/injection, schedule: Q01DX005 (ip), vehicle: saline): 96 % of control

Oc1ccc(-c2cc3c(O)ccc(O)c3[nH]2)cc1
T/C [24]: 96 % of control
T/C [25]: 105 % of control
T/C [26]: 102 % of control

O=NN(CCCl)C(=O)CCCCC(=O)N(CCCl)N=O
T/C (dose: 25.0 mg/kg/injection, schedule: Q01DX001 (ip), vehicle: carboxymethylcellulose (CMC)): 154 % of control
T/C [1]: 160 % of control
T/C [22]: 75 % of control
T/C [2]: 165 % of control
T/C [23]: 67 % of control
T/C [3]: 122 % of control

Cc1nc(/N=N/c2nc(C)c(C)[nH]2)[nH]c1C
T/C [8]: 95 % of control
T/C [9]: 88 % of control
T/C [10]: 104 % of control
T/C [11]: 93 % of control
T/C [12]: 92 % of control
T/C [13]: 93 % of control

CC(C)=C1C2C=CC1C(CO)C2CO (stereo not drawn)
T/C [8]: 106 % of control
T/C [9]: 105 % of control
T/C [10]: 91 % of control
T/C [11]: 114 % of control
T/C [12]: 102 % of control
T/C [13]: 102 % of control

O=C1C(=O)c2ccccc2C(O)=C1CC=C1CCCC1
T/C (dose: 100.0 mg/kg/injection, schedule: Q01DX001 (ip), vehicle: water): 109 % of control
T/C (dose: 100.0 mg/kg/injection, schedule: Q01DX009 (ip), vehicle: water): 105 % of control
T/C (dose: 200.0 mg/kg/injection, schedule: Q01DX009 (ip), vehicle: water): 103 % of control

c1ccc(P(=NC2CCCCCCC2)(c2ccccc2)c2ccccc2)cc1
T/C [17]: 96 % of control
T/C [18]: 98 % of control
T/C [19]: 105 % of control
